Data: patent US8802597B2, “Herbicidal pyrimidines” (E I du Pont de Nemours and Company, priority 2003, dated 2014)

Columns and labels:
Type in all cases: in vivo
[1] = tested on: annual bluegrass (Poa annua); test: Test G pre/postemergence; settings: Preemergence
Outline: (§1)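 Test chemicals in non-phytotoxic solvent with surfactant applied preemergence to sown seeds or nutlets and postemergence to plants 2–18 cm tall (1- to 4-leaf stage). Greenhouse-held 12–21 days, then visually rated against untreated controls on a 0 (no effect) to 100 (complete control) scale.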

[2] = tested on: guineagrass (Panicum maximum); test: Test G pre/postemergence; settings: Preemergence
Outline: as §1

[3] = tested on: Surinam grass (Brachiaria decumbens); test: Test G pre/postemergence; settings: Preemergence
Outline: as §1

[4] = tested on: barnyardgrass (Echinochloa crus-galli); test: Test G pre/postemergence; settings: Preemergence
Outline: as §1

[5] = tested on: downy bromegrass (Bromus tectorum); test: Test G pre/postemergence; settings: Preemergence
Outline: as §1

[6] = tested on: Italian ryegrass (Lolium multiflorum); test: Test G pre/postemergence; settings: Preemergence
Outline: as §1

[7] = tested on: field bindweed (Convolvulus arvensis); test: Test G pre/postemergence; settings: Preemergence
Outline: as §1

[8] = tested on: johnsongrass (Sorghum halepense); test: Test G pre/postemergence; settings: Preemergence
Outline: as §1

[9] = tested on: tropical spiderwort (Commelina benghalensis); test: Test G pre/postemergence; settings: Preemergence
Outline: as §1

[10] = tested on: bermudagrass (Cynodon dactylon); test: Test G pre/postemergence; settings: Preemergence
Outline: as §1

[11] = tested on: common chickweed (Stellaria media); test: Test D pre/postemergence; settings: scale 0 to 100 (100 = complete control)
From the text: (§2) Seeds of plant species selected from catchweed bedstraw (galium; Galium aparine), common chickweed (Stellaria media), kochia (Kochia scoparia), lambsquarters (Chenopodium album), pigweed (Amaranthus retroflexus), Russian thistle (Salsola kali), wild buckwheat (Polygonum convolvulus), wild mustard (Sinapis arvensis), winter barley (Hordeum vulgare), and wheat (Triticum aestivum) were planted and treated preemergence with test chemicals formulated in a non-phytotoxic solvent mixture which included a surfactant.
(§3) At the same time, plants selected from these crop and weed species were treated with postemergence applications of some of the test chemicals formulated in the same manner. Plants ranged in height from 2 to 18 cm (1- to 4-leaf stage) for postemergence treatments. Treated plants and controls were maintained in a controlled growth environment for 15 to 25 days after which time all species were compared to controls and visually evaluated. Plant response ratings, summarized in Table D, are based on a scale of 0 to 100 where 0 is no effect and 100 is complete control. A dash (-) response means no test result.

[12] = tested on: pigweed (Amaranthus retroflexus); test: Test D pre/postemergence; settings: scale 0 to 100 (100 = complete control)
From the text: as §2, §3

COC(=O)c1nc(C2CC2)nc(N)c1Cl [Compound 9, methyl 6-amino-5-chloro-2-cyclopropyl-4-pyrimidinecarboxylate]
65: Plant response rating, Chickweed ([11]; Preemergence, 16 g ai/ha) | Plant response rating, Pigweed ([12]; Postemergence, 16 g ai/ha) | Plant response rating, Pigweed ([12]; Preemergence, 16 g ai/ha)
40: Plant response rating, Surinam Grass ([3]; 62 g ai/ha, scale 0-100) | Plant response rating, Johnsongrass ([8]; 62 g ai/ha, scale 0-100)
70: Plant response rating, Surinam Grass ([3]; 125 g ai/ha, scale 0-100) | Plant response rating, Barnyardgrass ([4]; 125 g ai/ha, scale 0-100) | Plant response rating, Bromegrass, Downy ([5]; 250 g ai/ha, scale 0-100)
100: Plant response rating, Bluegrass ([1]; 500 g ai/ha, scale 0 to 100) | Plant response rating, Guineagrass ([2]; 125 g ai/ha, scale 0-100) | Plant response rating, Guineagrass ([2]; 250 g ai/ha, scale 0-100) | Plant response rating, Guineagrass ([2]; 500 g ai/ha, scale 0 to 100) | Plant response rating, Bromegrass, Downy ([5]; 500 g ai/ha, scale 0 to 100) | Plant response rating, Bindweed, Field ([7]; 125 g ai/ha, scale 0-100) | Plant response rating, Bindweed, Field ([7]; 250 g ai/ha, scale 0-100) | Plant response rating, Bindweed, Field ([7]; 500 g ai/ha, scale 0 to 100) | Plant response rating, Spiderwort ([9]; 62 g ai/ha, scale 0-100) | Plant response rating, Spiderwort ([9]; 125 g ai/ha, scale 0-100) | Plant response rating, Spiderwort ([9]; 250 g ai/ha, scale 0-100) | Plant response rating, Spiderwort ([9]; 500 g ai/ha, scale 0 to 100) | Plant response rating, Bermudagrass ([10]; 500 g ai/ha, scale 0 to 100) | Plant response rating, Chickweed ([11]; Postemergence, 31 g ai/ha) | Plant response rating, Chickweed ([11]; Postemergence, 62 g ai/ha) | Plant response rating, Chickweed ([11]; Postemergence, 125 g ai/ha) | Plant response rating, Chickweed ([11]; Preemergence, 62 g ai/ha) | Plant response rating, Chickweed ([11]; Preemergence, 125 g ai/ha) | Plant response rating, Pigweed ([12]; Postemergence, 31 g ai/ha) | Plant response rating, Pigweed ([12]; Postemergence, 62 g ai/ha) | Plant response rating, Pigweed ([12]; Postemergence, 125 g ai/ha) | Plant response rating, Pigweed ([12]; Preemergence, 62 g ai/ha) | Plant response rating, Pigweed ([12]; Preemergence, 125 g ai/ha)
85: Plant response rating, Barnyardgrass ([4]; 250 g ai/ha, scale 0-100)
50: Plant response rating, Bromegrass, Downy ([5]; 125 g ai/ha, scale 0-100) | Plant response rating, Ryegrass, Italian ([6]; 125 g ai/ha, scale 0-100)
30: Plant response rating, Bluegrass ([1]; 125 g ai/ha, scale 0-100) | Plant response rating, Barnyardgrass ([4]; 62 g ai/ha, scale 0-100)
20: Plant response rating, Ryegrass, Italian ([6]; 62 g ai/ha, scale 0-100)
90: Plant response rating, Guineagrass ([2]; 62 g ai/ha, scale 0-100) | Plant response rating, Surinam Grass ([3]; 500 g ai/ha, scale 0 to 100)
10: Plant response rating, Bluegrass ([1]; 62 g ai/ha, scale 0-100) | Plant response rating, Bromegrass, Downy ([5]; 62 g ai/ha, scale 0-100) | Plant response rating, Bermudagrass ([10]; 62 g ai/ha, scale 0-100)
95: Plant response rating, Bluegrass ([1]; 250 g ai/ha, scale 0-100) | Plant response rating, Barnyardgrass ([4]; 500 g ai/ha, scale 0 to 100) | Plant response rating, Bindweed, Field ([7]; 62 g ai/ha, scale 0-100) | Plant response rating, Johnsongrass ([8]; 250 g ai/ha, scale 0-100) | Plant response rating, Johnsongrass ([8]; 500 g ai/ha, scale 0 to 100) | Plant response rating, Bermudagrass ([10]; 125 g ai/ha, scale 0-100) | Plant response rating, Bermudagrass ([10]; 250 g ai/ha, scale 0-100) | Plant response rating, Chickweed ([11]; Preemergence, 31 g ai/ha)
60: Plant response rating, Chickweed ([11]; Postemergence, 16 g ai/ha)
75: Plant response rating, Ryegrass, Italian ([6]; 250 g ai/ha, scale 0-100)
80: Plant response rating, Surinam Grass ([3]; 250 g ai/ha, scale 0-100) | Plant response rating, Ryegrass, Italian ([6]; 500 g ai/ha, scale 0 to 100) | Plant response rating, Johnsongrass ([8]; 125 g ai/ha, scale 0-100) | Plant response rating, Pigweed ([12]; Preemergence, 31 g ai/ha)
